In ChEMBL document CHEMBL3044921, “Synthesis, characterization, and SAR studies of new (1H-indol-3-yl)alkyl-3-(1H-indol-3-yl)propanamide derivatives as possible antimicrobial and antitubercular agents” (2013):
In brackets after ≈: the same amount, converted by molar mass.

The compounds below were run on Mycobacterium tuberculosis (assay: Antitubercular activity against multidrug-resistant Mycobacterium tuberculosis assessed as growth inhibition at 0.3125 to 5 ug/mL after 7 days by resazurin reduction test). Conditions: 168 h.
Assay type: functional

SMILES	MIC [µg/mL]
O=C(CCc1c[nH]c2ccc(Cl)cc12)NCc1c[nH]c2ccc(OC(F)(F)F)cc12	> 50
Cc1c(CCCNC(=O)CCc2c[nH]c3ccc(Cl)cc23)c2cc(OC(F)(F)F)ccc2n1C	> 50
Cc1c(CNC(=O)CCc2cn(C)c3ccc(Cl)cc23)c2cc(OC(F)(F)F)ccc2n1C	> 50
O=C(CCc1c[nH]c2ccc(Cl)cc12)NCc1c[nH]c2ccc(Cl)cc12	6.25 (≈ 16.2 µM)
Cc1[nH]c2ccc(OC(F)(F)F)cc2c1CNC(=O)CCc1c[nH]c2ccc(Cl)cc12	6.25 (≈ 13.9 µM)
NNC(=O)c1ccncc1 [ISONIAZID]	12.5 (≈ 91.1 µM)
Cn1cc(CCC(=O)NCCCc2c[nH]c3ccc(Cl)cc23)c2cc(Cl)ccc21	2.5 (≈ 5.84 µM)
Cc1c(CCCNC(=O)CCc2cn(C)c3ccc(Cl)cc23)c2cc(OC(F)(F)F)ccc2n1C	1.25 (≈ 2.47 µM)
Cn1cc(CNC(=O)CCc2c[nH]c3ccc(Cl)cc23)c2cc(Cl)ccc21	> 50
Cc1[nH]c2ccc(OC(F)(F)F)cc2c1CCCNC(=O)CCc1c[nH]c2ccc(Cl)cc12	> 50
Cc1[nH]c2ccc(OC(F)(F)F)cc2c1CNC(=O)CCc1cn(C)c2ccc(Cl)cc12	> 50
Cc1c(CNC(=O)CCc2c[nH]c3ccc(Cl)cc23)c2cc(OC(F)(F)F)ccc2n1C	> 50
Cn1cc(CCC(=O)NCc2c[nH]c3ccc(OC(F)(F)F)cc23)c2cc(Cl)ccc21	6.25 (≈ 13.9 µM)
CO[C@H]1/C=C/O[C@@]2(C)Oc3c(C)c(O)c4c(O)c(c(/C=N/N5CCN(C)CC5)c(O)c4c3C2=O)NC(=O)/C(C)=C\C=C\[C@H](C)[C@H](O)[C@@H](C)[C@@H](O)[C@@H](C)[C@H](OC(C)=O)[C@@H]1C [RIFAMPIN]	25 (≈ 30.4 µM)
Cn1cc(CCCNC(=O)CCc2c[nH]c3ccc(Cl)cc23)c2cc(OC(F)(F)F)ccc21	12.5 (≈ 26.2 µM)
Cn1cc(CCC(=O)NCCCc2c[nH]c3ccc(OC(F)(F)F)cc23)c2cc(Cl)ccc21	6.25 (≈ 13.1 µM)
Cn1cc(CCC(=O)NCc2c[nH]c3ccc(Cl)cc23)c2cc(Cl)ccc21	6.25 (≈ 15.6 µM)
Cn1cc(CCC(=O)NCc2cn(C)c3ccc(Cl)cc23)c2cc(Cl)ccc21	> 50
Cn1cc(CCCNC(=O)CCc2cn(C)c3ccc(Cl)cc23)c2cc(Cl)ccc21	25 (≈ 56.5 µM)
